Assay results from patent publication US9833497B2, “Human originated EGF domain proteins and use of the same” (CHENGDU SOURCEBIO LIMITED-LIABILITY COMPANY, priority 2013, dated 2017).

Legend:
Type in all cases: cell-based
[1] = tested on: Proteus vulgaris; test: MIC against Gram-negative bacteria: Proteus vulgaris; conditions: for MIC: P. vulgaris, 10 h cultivation at 37° C.
In short: (§1)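 Antibacterial activity of purified human EGF domain proteins: two-fold concentration series, triplicate wells, LB broth, 5×10^5 CFU/mL bacteria, 37° C shaking incubation. The lowest concentration without growth defines the MIC.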

[2] = tested on: Proteus mirabilis; test: MIC against Gram-negative bacteria: Proteus mirabilis; conditions: for MIC: P. mirabilis, 10 h cultivation at 37° C.
In short: as §1

[3] = tested on: Moraxella catarrhalis; test: MIC against Gram-negative bacteria: Moraxella catarrhalis; conditions: for MIC: M. catarrhalis, 10 h cultivation at 37° C.
In short: as §1

[4] = tested on: Enterobacter cloacae; test: MIC against Gram-negative bacteria: Enterobacter cloacae; conditions: for MIC: E. cloacae, 10 h cultivation at 37° C.
In short: as §1

[5] = tested on: Citrobacter diversus; test: MIC against Gram-negative bacteria: Citrobacter diversus; conditions: for MIC: C. diversus, 10 h cultivation at 37° C.
In short: as §1

[6] = tested on: Klebsiella pneumonia; test: MIC against Gram-negative bacteria: Klebsiella pneumonia; conditions: for MIC: K. pneumonia, 10 h cultivation at 37° C.
In short: as §1

[7] = tested on: Serratia marcescens; test: MIC against Gram-negative bacteria: Serratia marcescens; conditions: for MIC: S. marcescens, 10 h cultivation at 37° C.
In short: as §1

[8] = tested on: E. coli DH5α; test: Antibacterial activity: MIC and growth curve against E. coli DH5α in 96-well plate; conditions: minimal inhibitory concentration against E. coli DH5α; 96-well plate, 5×10^5 CFU/mL, 37° C., judged after 8 h
In short: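 Log-phase bacteria (OD600 ~0.5) resuspended in LB at 5×10^5 CFU/mL, exposed to recombinant protein at 50, 25, 12.5 μg/mL final in triplicate, 37 °C shaking at 175 rpm. OD600 read every 30 min; MIC is lowest concentration showing no growth.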

[9] = tested on: E. coli BL21; test: MIC against Gram-negative bacteria: E. coli BL21; conditions: for MIC: 10 h cultivation at 37° C.
In short: as §1

[10] = tested on: Pseudomonas aeruginosa; test: MIC against Gram-negative bacteria: Pseudomonas aeruginosa; conditions: for MIC: P. aeruginosa, 10 h cultivation at 37° C.
In short: as §1

[11] = tested on: Aeromonas hydrophila; test: MIC against Gram-negative bacteria: Aeromonas hydrophila; conditions: for MIC: A. hydrophila, 10 h cultivation at 37° C.
In short: as §1

[12] = Proteus vulgaris, 96-well plate, 5×10^5 CFU/mL, 37° C., 10 h
[13] = Proteus mirabilis, 96-well plate, 5×10^5 CFU/mL, 37° C., 10 h
[14] = Moraxella catarrhalis, 96-well plate, 5×10^5 CFU/mL, 37° C., 10 h
[15] = Enterobacter cloacae, 96-well plate, 5×10^5 CFU/mL, 37° C., 10 h
[16] = Citrobacter diversus, 96-well plate, 5×10^5 CFU/mL, 37° C., 10 h
[17] = Klebsiella pneumonia, 96-well plate, 5×10^5 CFU/mL, 37° C., 10 h
[18] = Serratia marcescens, 96-well plate, 5×10^5 CFU/mL, 37° C., 10 h
[19] = E. coli BL21, 96-well plate, 5×10^5 CFU/mL, 37° C., 10 h
[20] = Pseudomonas aeruginosa, 96-well plate, 5×10^5 CFU/mL, 37° C., 10 h
[21] = Aeromonas hydrophila, 96-well plate, 5×10^5 CFU/mL, 37° C., 10 h
[22] = 96-well plate, 5×10^5 CFU/mL, 37° C., 10 h

Substance | MIC against P. vulgaris [1, 12] | MIC against P. mirabilis [2, 13] | MIC against M. catarrhalis [3, 14] | MIC against E. cloacae [4, 15] | MIC against C. diversus [5, 16] | MIC against K. pneumonia [6, 17] | MIC against S. marcescens [7, 18] | MIC [8] | MIC against E. coli BL21 [9, 19] | MIC against P. aeruginosa [10, 20] | MIC against A. hydrophila [11, 21] | MIC [1] | MIC [2] | MIC [3] | MIC [4] | MIC [5] | MIC [6] | MIC [7] | MIC ([9]; E. coli BL21) | MIC [10] | further results
PRT1308 (TSPQCPRKCDPNANCVQDSAGASTCACAAGYSGNGIFCS; listed as Homo sapiens) | 12.5 µg/mL | 25 µg/mL | 50 µg/mL | 50 µg/mL | 25 µg/mL | 12.5 µg/mL | 50 µg/mL | 50 µg/mL | 12.5 µg/mL | 50 µg/mL | 12.5 µg/mL | – | – | – | – | – | – | – | – | – | –
PRT68 (RSGRCANGVCKNGGTCVNLLIGGFHCVCPPGEYERPYCE; listed as Homo sapiens) | – | – | – | – | – | – | – | 12.5 µg/mL | – | – | – | – | – | – | – | – | – | – | – | – | MIC (μg/mL) P. vulgaris [1, 12]: 12.5 µg/mL; MIC (μg/mL) P. mirabilis [2, 13]: 12.5 µg/mL; MIC (μg/mL) M. catarrhalis [3, 14]: 12.5 µg/mL; MIC (μg/mL) E. cloacae [4, 15]: 12.5 µg/mL; MIC (μg/mL) C. diversus [5, 16]: 12.5 µg/mL; MIC (μg/mL) K. pneumonia [6, 17]: 25 µg/mL; MIC (μg/mL) S. marcescens [7, 18]: 100 µg/mL; MIC (μg/mL) E. coli BL21 [9, 19]: 25 µg/mL; MIC (μg/mL) P. aeruginosa [10, 20]: 12.5 µg/mL; MIC (μg/mL) A. hydrophila [11, 21]: 12.5 µg/mL
PRT1012 (APKGCGPPSPCLYNGSCSETTGLGGPGFRCSCPHSSPGPRCQ; listed as Homo sapiens) | – | – | – | – | – | – | – | 12.5 µg/mL | – | – | – | 25 µg/mL | 12.5 µg/mL | 12.5 µg/mL | 50 µg/mL | 50 µg/mL | 12.5 µg/mL | 12.5 µg/mL | 50 µg/mL | 12.5 µg/mL | MIC [11]: 12.5 µg/mL
PRT607 (CDCHPEGSLSLQCKDDGRCECREGFVGNRCDQCEENYFYNRSWPGCQE; listed as Homo sapiens) | – | – | – | – | – | – | – | 50 µg/mL | – | – | – | – | – | – | – | – | – | – | – | – | MIC P. vulgaris [1, 22]: 12.5 µg/mL; MIC P. mirabilis [2, 22]: 50 µg/mL; MIC M. catarrhalis [3, 22]: 12.5 µg/mL; MIC E. cloacae [4, 22]: 50 µg/mL; MIC C. diversus [5, 22]: 50 µg/mL; MIC K. pneumonia [6, 22]: 25 µg/mL; MIC S. marcescens [7, 22]: 50 µg/mL; MIC E. coli BL21 [9, 22]: 25 µg/mL; MIC P. aeruginosa [10, 22]: 12.5 µg/mL; MIC A. hydrophila [11, 22]: 12.5 µg/mL
PRT981 (DINECRSGACHAAHTRDCLQDPGGGFRCLCHAGFSGPRCQ; listed as Homo sapiens) | – | – | – | – | – | – | – | 25 µg/mL | – | – | – | 50 µg/mL | 12.5 µg/mL | 25 µg/mL | 50 µg/mL | 25 µg/mL | 12.5 µg/mL | 12.5 µg/mL | 12.5 µg/mL | 50 µg/mL | MIC [11]: 12.5 µg/mL
PRT1310 (EINSCLIHHGGCHIHAECIPTGPQQVSCSCREGYSGDGIRTCE; listed as Homo sapiens) | 12.5 µg/mL | 25 µg/mL | 50 µg/mL | 50 µg/mL | 25 µg/mL | 25 µg/mL | 25 µg/mL | 12.5 µg/mL | 50 µg/mL | 12.5 µg/mL | 12.5 µg/mL | – | – | – | – | – | – | – | – | – | –
